Test results as given in publication PMC10041521, “Fluorescent Activity-Based Probe To Image and Inhibit Factor XIa Activity in Human Plasma” (Journal of Medicinal Chemistry, 2023).
Values joined by “and” are separate entries in the source; they are usually repeats but may differ in a detail not shown here. Identical values can stand only once. [ ]: non-standard residue; d: D form. The star is where a group is joined. ACC = NC(=O)Cc1cc(=O)oc2cc(N*)ccc12; Nle = CCCC[C@H](N)C(=O)O; OBn = c1ccc(CO*)cc1; Bn = c1ccc(C*)cc1

Columns and labels:
Assay type in all cases: biochemical
fXIa [1] = biological target: T1, fXIa (Homo sapiens, UniProt P03951); assay: Screening of individual substrates (hydrolysis rate, RFU/s); parameters: complete conversion of the single chain zymogen to the two-chain active form; made in house; host or cells: HEK293 cells expressing EBNA (pCEP4 vector); settings: substrate 1 μM, 5 nM fXIa, RFU/s over 30 min, 37 °C
Protocol: (§1) All kinetic assays were performed using a spectrofluorometer (Molecular Devices SpectraMax Gemini XPS) on 96-well, white, flat bottom, nontreated plates (Corning). The parameters were as follows: excitation/emission wavelength, 355/460 nm (cutoff, 455 nm); varying concentrations of substrates, ABPs, inhibitor, and enzymes. The assay buffer (20 mM Tris-base, 150 mM NaCl, 5 mM CaCl2, pH 7.4) was prepared at room temperature, and the enzyme kinetic studies were performed at 37 °C. All enzymes were preincubated in assay buffer for 15 min at 37 °C before addition to the wells. Each assay was repeated at least twice, and the data represent the average of these repetitions. The obtained results were analyzed using SoftMax (Molecular Devices), GraphPad Prism, and Microsoft Excel software.
All potentially selective fXIa substrates were tested for their selectivity against four coagulation factors, APC, thrombin, fXa, and fXIa at a concentration of 1 μM. The assay conditions were as follows: 1 μL of each substrate was placed in separate wells on the plate followed by the addition of 99 μL of preincubated enzyme (15 min, 37 °C) in assay buffer. To obtain reliable results and a robust fluorescence signal, the final enzyme concentration was 120 nM for APC, 20 nM for thrombin, 70 nM for fXa, and 5 nM for fXIa. Substrate hydrolysis was measured for 30 min (λex = 355 nm, λem = 460 nm), and the linear part of each progress curve was used to determine the substrate hydrolysis rate (RFU/s). The obtained RFU/s were then adjusted to represent the value corresponding to the same enzyme activity.

fXa = biological target: T2, fXa (Homo sapiens, UniProt P00742); assay: Kinetic parameters (kcat/KM) of ACC-labeled substrates; settings: Michaelis-Menten, 200 nM fXa, assay buffer pH 7.4, 37 °C, ACC release 30 min; mean ± s.d., n = 3
T2 construct: from tissue; host or cells: fresh frozen plasma
Protocol: (§2) Protein C, factor X, and prothrombin were purified from fresh frozen plasma and then activated as previously described.[33]
as §1
(§3) The kinetic parameters (kcat, KM, and kcat/KM) of selected ACC-labeled substrates were determined using Michaelis–Menten nonlinear regression according to the protocol described by Poreba et al.[62] Each substrate was serially diluted until the eighth well to obtain substrate concentrations ranging from 1.16 nM to 111 μM depending on the substrate used. Next, each enzyme was preincubated (15 min, 37 °C) in assay buffer to a final enzyme concentration of 425 nM for APC, 70 nM for thrombin, 200 nM for fXa, and 5 nM for fXIa and was added to the wells containing eight different substrate concentrations. The release of ACC was measured for 30 min (λex = 355 nm, λem = 460 nm). The linear part of each progression curve was used to calculate the kinetic parameters using GraphPad Prism and Microsoft Excel software.

thrombin = biological target: T3, thrombin (Homo sapiens, UniProt P00734); assay: as above; settings: Michaelis-Menten, 70 nM thrombin, assay buffer pH 7.4, 37 °C, ACC release 30 min; mean ± s.d., n = 3
T3 construct: from tissue; host or cells: fresh frozen plasma
Protocol: as §2, §1, §3

fXIa [2] = biological target: T1, fXIa; assay: as above; parameters: complete conversion of the single chain zymogen to the two-chain active form; made in house; host or cells: HEK293 cells expressing EBNA (pCEP4 vector); settings: for kcat/KM fXIa: Michaelis-Menten, 5 nM fXIa, 20 mM Tris, 150 mM NaCl, 5 mM CaCl2, pH 7.4, 37 °C, ACC release 30 min, mean ± s.d., n = 3
Protocol: as §1, §3

fXIa [3] = biological target: T1, fXIa; assay: Labeling of purified coagulation factors with ABPs, SDS-PAGE and blot; parameters: complete conversion of the single chain zymogen to the two-chain active form; made in house; host or cells: HEK293 cells expressing EBNA (pCEP4 vector); settings: APC, thrombin, fXa, fXIa 200 nM each, separately, probe/enzyme 1:1, 30 min, 37 °C; for labeling of purified coagulation factors by biotinylated ABP (western blot): streptavidin Alexa Fluor 647, 658 nm
Protocol: To determine biotin-labeled ABPs selectivity, four purified coagulation factors (APC, thrombin, fXa, and fXIa) with a constant concentration of 200 nM were incubated separately with each probe (the probe/enzyme ratio was 1) in assay buffer for 30 min at 37 °C. Each enzyme was incubated with each probe in a volume of 40 μL followed by reduction with 20 μL of 3 × SDS/DTT for 5 min at 95 °C. The first well was loaded with 0.5 μL of the protein marker PageRuler Prestained Protein Ladder (Thermo Scientific), and then 10 μL of each sample was run on a 12% (w/v) 15-well gel. SDS–PAGE separation was performed at 200 V for 39 min followed by a wet tank transfer to a nitrocellulose membrane (0.2 μm, Bio-Rad) at 10 V for 60 min. The membrane was blocked with 2.5% BSA in TBS-T (Tris-buffered saline with 0.1% (v/v) Tween 20) for 60 min at room temperature. Next, the membrane was incubated with fluorescent streptavidin Alexa Fluor 647 conjugate (dilution 1:10,000 in TBS-T with 1% BSA) for 60 min. The biotin-labeled ABPs were detected at 658 nm using an Azure Biosystems Sapphire Biomolecular Imager and Azure Spot Analysis software.
For fluorescently labeled probe sample preparation, electrophoresis and membrane transfer were performed as described above. When testing the inhibitor utility, 200 nM fXIa was incubated with inhibitor (final inhibitor concentration 5 μM) for 60 min prior to probe addition. After the membrane was blocked with 2.5% BSA in TBS-T (60 min), the labeled proteins were directly imaged with a […] laser using an Azure Biosystems Sapphire Biomolecular Imager and Azure Spot Analysis software.

fXIa [4] = biological target: T1, fXIa; assay: P1 substrate specificity, defined library Ac-Ala-Arg-Leu-P1-ACC; parameters: complete conversion of the single chain zymogen to the two-chain active form; made in house; host or cells: HEK293 cells expressing EBNA (pCEP4 vector); settings: individual substrates Ac-Ala-Arg-Leu-P1-ACC, 100 μM, 8 nM fXIa, RFU/s, best residue = 100%, n = 2
Protocol: as §1
To determine fXIa preferences at the P1 position, we used the Ac-Ala-Arg-Leu-P1-ACC library of 133 individual fluorogenic substrates.[34] The assay conditions were as follows: 0.5 μL of each library substrate was placed in one well, and 99.5 μL of preincubated enzyme (15 min, 37 °C) was added. The final library concentration was 100 μM, and the enzyme concentration was 8 nM. The release of ACC was measured for 30 min (λex = 355 nm, λem = 460 nm), but only the linear portion of each progress curve was used to determine the substrate hydrolysis rate (RFU/s, relative fluorescence unit per second). […]

fXIa [5] = biological target: T1, fXIa; assay: Detection of fXIa in human plasma with fluorescent ABP; settings: EDTA plasma, 60 min, 37 °C
Protocol: Human plasma (collected in tubes containing anticoagulant EDTA) was isolated from whole blood as described elsewhere[33] and incubated with a fluorescently labeled probe at probe concentrations ranging from 1 to 20 μM. Incubation was carried out in assay buffer for 60 min at 37 °C. Plasma was incubated with the probe in a total volume of 40 μL (20 μL of plasma and 20 μL of probe) followed by reduction with 20 μL of 3 × SDS/DTT for 5 min at 95 °C. The first well was loaded with 0.5 μL of the protein marker PageRuler Prestained Protein Ladder (Thermo Scientific), and then 5 μL of each sample was run on a 12% (w/v) 15-well gel. SDS–PAGE separation was performed at 200 V for 39 min followed by transfer to a nitrocellulose membrane (0.2 μm, Bio-Rad) at 10 V for 60 min. The membrane was blocked with 2.5% BSA in TBS-T for 60 min at room temperature. Next, the membrane was treated with sheep antihuman polyclonal fXI antibody (Haematologic Technologies Inc., PAHFXI-S, 1:1000) for 7 h followed by incubation with Alexa Fluor 680 donkey antisheep secondary antibody (Life Technologies, A21102, 2:10,000) for 1 h (both at room temperature). The membrane was then scanned using an Azure Biosystems Sapphire Biomolecular Imager and Azure Spot Analysis software for fXIa at 488 nm (for BODIPY detection) and 658 nm (for antibody detection).

APC = biological target: T4, APC (Homo sapiens, UniProt P04070); assay: Kinetic parameters (kcat/KM) of ACC-labeled substrates; settings: Michaelis-Menten, 425 nM APC, assay buffer pH 7.4, 37 °C, ACC release 30 min; mean ± s.d., n = 3
T4 construct: from tissue; host or cells: fresh frozen plasma
Protocol: as §2, §1, §3

T1 sequence (P03951 388-625 limits assumed): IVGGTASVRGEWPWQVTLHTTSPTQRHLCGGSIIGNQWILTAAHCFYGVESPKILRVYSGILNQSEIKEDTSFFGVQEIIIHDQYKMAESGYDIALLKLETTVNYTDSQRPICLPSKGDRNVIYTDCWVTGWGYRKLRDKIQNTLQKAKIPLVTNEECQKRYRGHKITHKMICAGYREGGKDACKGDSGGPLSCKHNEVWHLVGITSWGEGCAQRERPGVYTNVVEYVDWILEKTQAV
T1 sequence (P03951 19-387 partner limits assumed): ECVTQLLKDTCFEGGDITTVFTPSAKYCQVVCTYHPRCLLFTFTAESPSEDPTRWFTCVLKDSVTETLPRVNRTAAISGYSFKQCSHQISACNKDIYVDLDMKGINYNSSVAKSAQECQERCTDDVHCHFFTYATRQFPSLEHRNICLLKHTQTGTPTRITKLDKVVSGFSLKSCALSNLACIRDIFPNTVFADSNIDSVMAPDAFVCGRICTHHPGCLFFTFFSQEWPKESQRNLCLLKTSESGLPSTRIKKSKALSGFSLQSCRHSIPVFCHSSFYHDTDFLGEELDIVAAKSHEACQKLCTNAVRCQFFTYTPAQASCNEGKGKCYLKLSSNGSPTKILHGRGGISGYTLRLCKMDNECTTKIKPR
T4 sequence (P04070 212-461 limits assumed): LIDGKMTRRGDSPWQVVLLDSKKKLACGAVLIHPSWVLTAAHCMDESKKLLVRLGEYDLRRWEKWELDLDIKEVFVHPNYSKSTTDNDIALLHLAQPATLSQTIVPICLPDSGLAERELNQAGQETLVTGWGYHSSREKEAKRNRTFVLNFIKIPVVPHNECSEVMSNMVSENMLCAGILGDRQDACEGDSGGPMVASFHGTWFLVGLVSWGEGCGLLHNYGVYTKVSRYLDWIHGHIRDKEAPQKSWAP
T4 sequence (P04070 43-197 partner limits assumed): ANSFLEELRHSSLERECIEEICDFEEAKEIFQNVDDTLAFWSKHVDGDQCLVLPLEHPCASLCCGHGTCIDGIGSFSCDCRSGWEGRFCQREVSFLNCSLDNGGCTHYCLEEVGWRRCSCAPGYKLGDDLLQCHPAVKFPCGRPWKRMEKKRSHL
T2 sequence (P00742 235-488 limits assumed): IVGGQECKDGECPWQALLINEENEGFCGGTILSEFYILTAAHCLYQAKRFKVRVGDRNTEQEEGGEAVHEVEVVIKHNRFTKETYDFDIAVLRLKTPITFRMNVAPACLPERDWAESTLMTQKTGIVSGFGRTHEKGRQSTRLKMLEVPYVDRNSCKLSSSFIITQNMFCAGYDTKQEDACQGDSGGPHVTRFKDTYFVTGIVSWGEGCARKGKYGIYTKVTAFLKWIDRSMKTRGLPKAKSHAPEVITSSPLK
T2 sequence (P00742 41-179 partner limits assumed): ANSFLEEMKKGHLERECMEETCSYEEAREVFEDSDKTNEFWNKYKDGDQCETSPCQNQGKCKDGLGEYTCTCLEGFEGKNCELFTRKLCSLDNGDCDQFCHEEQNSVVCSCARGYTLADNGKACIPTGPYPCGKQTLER

With “Ac-Tyr(2,6-Cl2-Z)-2-Aoc-hSer(Bzl)-Arg-ACC [SMXI23]” the “decrease in activity relative to SMXI3 (P2 L-His(Bzl))” value (fXIa [1]) was 5.5 fold.
With “Ac-Y(Bn)[Nle]E(OBn)R-{ACC} (SMILES CCCC[C@H](NC(=O)[C@H](Cc1ccc(OCc2ccccc2)cc1)NC(C)=O)C(=O)N[C@@H](CCC(=O)OCc1ccccc1)C(=O)N[C@@H](CCCNC(=N)N)C(=O)Nc1ccc2c(CC(N)=O)cc(=O)oc2c1) [SMXI13]” the “activity on fXIa relative to SMXI5” value (fXIa [1]; more active than SMXI5) was “fourfold”.
With “Ac-Tyr(2,6-Cl2-Z)-Nle-Glu(Bzl)-Arg-ACC [SMXI5]” the “kcat/KM fXa” value (fXa) was 4,500 ± 300 M^-1 s^-1, the kcat/KM thrombin (thrombin) was 11,000 ± 300 M^-1 s^-1 and the “kcat/KM fXIa” value (fXIa [2]) was 99,000 ± 7,000 M^-1 s^-1.
“biotin-PEG(4)-Tyr(2,6-Cl2-Z)-Nle-Glu(Bzl)-ArgP(OPh)2 [P-SMXI51]” was tested, and the “labeling of purified coagulation factors by biotinylated ABP (western blot)” value (fXIa [3]) was “only one signal from a protein between 35 and 40 kDa, corresponding to a fXIa monomer”.
L-Arg was tested, and the “relative activity at the P1 position” value (fXIa [4]) was 100%.
For “BODIPY-PEG(4)-Tyr(2,6-Cl2-Z)-Nle-Glu(Bzl)-ArgP(OPh)2 [P-SMXI52]”, the “probe concentration from which a clear fXIa band is observed in human plasma” value (fXIa [5]; probe 1-20 μM, SDS-PAGE, 488 nm, costaining with antifXI antibody) was ≥ 2 µM, the “selectivity of labeling in human plasma” value (fXIa [5]; probe up to 20 μM) was “remained selective even at a high probe concentration (20 μM)” and the “labeling of purified coagulation factors by fluorescent ABP (blot, 488 nm)” value (fXIa [3]) was “only one fluorescent band generated by fXIa labeling and no off-target signals”.
For “Ac-Tyr(2,6-Cl2-Z)-2-Aoc-Glu(Bzl)-Arg-ACC [SMXI7]”, the “decrease in activity relative to SMXI3 (P2 L-His(Bzl))” value (fXIa [1]) was 1.5 fold.
In the case of “Ac-Tyr(2,6-Cl2-Z)-2-Aoc-Nle(O-Bzl)-Arg-ACC [SMXI22]”, the “decrease in activity relative to SMXI3 (P2 L-His(Bzl))” value (fXIa [1]) is reported as 2.6 fold.
With “biotin-PEG(4)-Tyr(2,6-Cl2-Z)-Dht-His(Bzl)-ArgP(OPh)2 [P-SMXI191]” the “labeling of purified coagulation factors by biotinylated ABP (western blot)” value (fXIa [3]) was “only one signal from a protein between 35 and 40 kDa, corresponding to a fXIa monomer”.
With “Ac-Tyr(2,6-Cl2-Z)-Dht-His(Bzl)-Arg-ACC [SMXI19]” the “kcat/KM APC” value (APC) was 91 ± 3 M⁻¹ s⁻¹, the “kcat/KM fXIa” value (fXIa [2]) was 247,000 ± 5,000 M^-1 s^-1 and 247,000 ± 5000 M^-1 s^-1 and the “fold better hydrolyzed by fXIa than by fXa (kcat/KM ratio)” value (fXIa [2]; fXIa over fXa) was 80 fold. The “fold better hydrolyzed by fXIa than by thrombin (kcat/KM ratio)” value (fXIa [2]; fXIa over thrombin) was 28 fold.
